For 1 compound, Kd results are on record in paper PMC8648042, “IMB-XMA0038, a new inhibitor targeting aspartate-semialdehyde dehydrogenase of Mycobacterium tuberculosis” (Emerging Microbes & Infections, 2021).

For the assay, the target named is T1, Aspartate-semialdehyde dehydrogenase (MtASADH) (Mycobacterium tuberculosis, UniProt P9WNX5).
T1 construct: gene asd
The assay can be described thus: SPR with MtASADH immobilized on CM5 chip; also IC50 […] in LysC-coupled NADPH enzyme assay. The assay is classed as binding.

The structures appear in SMILES notation.

T1 sequence (P9WNX5 whole entry, looked up): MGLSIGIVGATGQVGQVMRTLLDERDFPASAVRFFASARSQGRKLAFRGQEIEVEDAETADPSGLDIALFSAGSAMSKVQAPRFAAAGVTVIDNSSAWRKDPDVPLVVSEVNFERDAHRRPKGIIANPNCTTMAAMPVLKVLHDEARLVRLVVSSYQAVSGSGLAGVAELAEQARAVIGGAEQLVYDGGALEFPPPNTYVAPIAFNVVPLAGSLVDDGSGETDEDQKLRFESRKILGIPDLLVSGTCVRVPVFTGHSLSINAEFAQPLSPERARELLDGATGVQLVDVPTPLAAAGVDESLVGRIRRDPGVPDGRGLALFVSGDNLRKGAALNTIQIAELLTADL

One may read the Kd as the free concentration of one partner at which half of the binding sites on the other are occupied at equilibrium, for simple one-to-one binding. Lower therefore signals higher affinity. Take `O=C(Nc1nnc(C2CCCO2)o1)c1ccc([N+](=O)[O-])o1` (stereo not shown) [IMB-XMA0038, 5-nitro-N-(5-(tetrahydrofuran-2-yl)-1,3,4-oxadiazol-2-yl)furan-2-carboxamide]: the Kd amounted to 365 µM.
